According to patent US8563586B2, “1,(3,)5-substituted imidazoles, their use in the treatment of hypertension and methods for their preparation” (Eldrug S.A., priority 2007, dated 2013):
Entries after “also recorded” stand apart in the source; their conditions may differ.

Assays:
[1] = tested on: anesthetized rabbits made hypertensive by AII infusion; test: In vivo: anesthetized rabbits made hypertensive by AII infusion, IV boluses of compound; parameters: species or system New Zealand White rabbits; settings: for in vivo antihypertensive potency / activity, relative, in words: anesthetized rabbits, angiotensin II-induced hypertension; for AII antagonistic effect: doses of 2 and 3.5 mol, cumulative IV boluses, potency order 22, 20, 15, 18, 23, 21, 30, 29
Description: The applicant has also established an in vivo assay using anesthetized rabbits in [Onassis 30 Cardiac Institute] which allows us to estimate relative potencies.
The assay is a routine assay and constitutes a convenient method to measure activities of AII antagonists.
In vivo experiments: Adult normotensive male New Zealand White rabbits weighing between 2.5 and 3.3 kg were used in the study following previously described methods.^46,47 In brief, animals were anesthetized by pentobarbitone (30 mg/kg), intubated and mechanically ventilated with 100% oxygen using a respirator for small animals (MD Industries, Mobile, Ala., USA). The tidal volume was 15 ml and the rate was adjusted to keep blood gases within normal rage. Two polyethylene catheters were inserted, one in the carotid artery for continuous blood pressure monitoring via a transducer attached to a multichannel recorder (Nihon-Kohden, Model 6000, Japan) and the other one in the jugular vein for the administrations of solution made by diluting Angiotensin II (AII) (Hypertensin, CIBA) in 5% dextrose at final concentration of 5 µg/ml. Based on previous testing with this rabbit preparation submaximal angiotensin II-dependent hypertension was induced by infusing Angiotensin via a syringe pump (Harvard Apparatus Pump 22, Harvard Apparatus, Natick. Mass., USA) at a constant rate of 0.2 ml/min ([…]). […] Five minutes after the establishment of hypertension, two cumulative IV boluses of each compound (2 and 3.5 mol) were given via an ear vein 20 minutes apart. The blood pressure was monitored for 20 minutes after the second bolus and then angiotensin infusion was halted and blood pressure was recorded for an additional period of 20 minutes until the end of the experiment. Boluses of the same dose of Losartan, as positive control, were used in the same experimental model.
The antihypertensive effect and the degree of potency of these compounds were tested in a preparation of anesthetized rabbits made hypertensive by AII infusion.

human AT1 = target: T1, human AT1 (Homo sapiens, UniProt P30556); test: In vitro binding, membranes containing AT1 receptor, radioligand [125I]Sar1,Ile8-Angiotensin II
T1 construct: purchased PerkinElmer Life Sciences, Inc., Boston, Mass., USA
T1 sequence (P30556 1-359): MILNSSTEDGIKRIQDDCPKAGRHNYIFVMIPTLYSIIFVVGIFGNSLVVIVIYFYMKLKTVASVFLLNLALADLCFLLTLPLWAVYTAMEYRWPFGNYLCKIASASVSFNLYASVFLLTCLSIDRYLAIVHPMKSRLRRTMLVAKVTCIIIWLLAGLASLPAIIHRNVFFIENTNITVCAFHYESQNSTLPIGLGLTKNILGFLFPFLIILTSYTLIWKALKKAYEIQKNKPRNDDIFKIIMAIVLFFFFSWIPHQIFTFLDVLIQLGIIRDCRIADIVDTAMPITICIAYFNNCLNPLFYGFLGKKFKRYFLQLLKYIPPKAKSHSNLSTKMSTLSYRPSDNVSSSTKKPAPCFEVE

[2] = tested on: conscious rabbits made hypertensive by angiotensin II infusion; settings: 15 mg mixed with vaseline applied on bare skin
Description: Conscious rabbits were made hypertensive by angiotensin II infusion. A mixture of 1 5 mgr of our lipophilic angiotensin II receptor blocker compound 20 (or its dialkylated counterpart) with vaseline was applied on bare skin.

anesthesized rabbits = settings: rabbit, in vivo; cited from earlier work
rat isolated uterus = settings: cited from earlier work

Molecule	in vivo antihypertensive potency / activity, relative, in words [1]	AII antagonistic effect [1]	also measured
Cc1cnc(CO)n1Cc1ccc(-c2ccccc2-c2nnn(C(c3ccccc3)(c3ccccc3)c3ccccc3Cl)n2)cc1 [Compound 21, 5-Methyl-2-hydroxymethyl-1-[[2′-[[N-(2-chloro-triphenylmethyl)]tetrazol-5-yl]biphenyl-4-yl]methyl]imidazole]	less potent; also recorded: least active	dose-dependent AII antagonistic effect	–
Cc1cn(C(c2ccccc2)(c2ccccc2)c2ccccc2)cn1 [Compound 15, 3-(Triphenylmethyl)-5-methylimidazole]	–	dose-dependent AII antagonistic effect	–
CCCCc1cncn1Cc1ccc(-c2ccccc2-c2nnn(C(c3ccccc3)(c3ccccc3)c3ccccc3Cl)n2)cc1 [Compound 18, 5-Butyl-1-[[2′-[[N-(2-chloro-triphenylmethyl)]tetrazol-5-yl]biphenyl-4-yl]methyl]imidazole]	more potent; also recorded: less potent compared to 20 and 25	dose-dependent AII antagonistic effect	–
c1ccc(Cn2nnnc2-c2ccccc2-c2ccc(Cn3cnc4ccccc43)cc2)cc1 [Compound 28, 1-[[2′-[(N-benzyl)tetrazol-5-yl]biphenyl-4-yl]methyl]benzimidazole]	even less potent	–	melting point: 62 to 64 °C
CCCCc1cnc(CO)n1Cc1ccc(-c2ccccc2-c2nnn(C(c3ccccc3)(c3ccccc3)c3ccccc3Cl)n2)cc1 [Compound 20, 5-Butyl-2-hydroxymethyl-1-[[2′-[[N-(2-chloro-triphenylmethyl)]tetrazol-5yl]biphenyl-4-yl]methyl]imidazole]	highly potent; also recorded: more potent compared to 18; also recorded: most potent	dose-dependent AII antagonistic effect	affinity for AT1 receptor, in words, relative to Losartan (human AT1; in vitro binding studies): lower affinity; blood pressure lowered by [2]: 20 mmHg; duration of blood pressure lowering [2]: two
OCc1nc2ccccc2n1Cc1ccc(-c2ccccc2-c2nnnn2Cc2ccccc2)cc1 [Compound 29, 1-[[2′-[(N-benzyl)tetrazol-5-yl]biphenyl-4-yl]methyl]-2-hydroxymethyl benzimidazole]	even less potent	dose-dependent AII antagonistic effect	melting point: 62 to 63 °C
[Sar^1, Lys^3, Glu^5] ANG II	–	–	activity in anesthesized rabbits (anesthesized rabbits): agonist activity; activity in the rat uterus assay (rat isolated uterus): agonist activity
CCCCc1cnc(CO)n1Cc1ccc(-c2ccccc2-c2nnnn2Cc2ccccc2)cc1 [Compound 25, 1-[[2′-[(N-benzyl)tetrazol-5-yl]biphenyl-4-yl]methyl]-5-butyl-2hydroxymethyl imidazole]	more potent compared to 18; also recorded: most potent	–	–
CCCCc1cnc(CO)n1Cc1ccc(-c2ccccc2-c2nnn[nH]2)cc1 [Compound 22, 5-butyl-2-hydroxymethyl-1-[[2′-(1H-tetrazol-5-yl)biphenyl-4-yl]methyl]imidazole]	highly potent; also recorded: more potent compared to 18; also recorded: slightly superior in activity; also recorded: most potent	dose-dependent AII antagonistic effect	fold lower affinity for the AT1 receptor than that of Losartan (human AT1; from IC50 values): ~3 fold; IC50 (human AT1; membranes containing AT1 receptors, competition with 0.1 nM [125I]Sar1,Ile8-Angiotensin II, read-out: IC50, affinity for the AT1 receptor): 53.8 ± 6.4 nM
Cc1cnc(CO)n1Cc1ccc(-c2ccccc2-c2nnn[nH]2)cc1 [Compound 23, 5-methyl-2-hydroxymethyl-1-[[2′-(1H-tetrazol-5-yl)biphenyl-4-yl]methyl]imidazole]	less potent	dose-dependent AII antagonistic effect	–
CCCCc1cncn1Cc1ccc(-c2ccccc2-c2nnnn2Cc2ccccc2)cc1 [Compound 24, 1-[[2′-[(N-benzyl)tetrazol-5-yl]biphenyl-4-yl]methyl]-5-butylimidazole]	–	–	melting point: 69 to 71 °C
OCc1nc2ccccc2n1Cc1ccc(-c2ccccc2-c2nnn[nH]2)cc1 [Compound 30, 2-hydroxymethyl-1-[[2′-(1H-tetrazol-5-yl)biphenyl-4-yl]methyl]benzimidazole]	even less potent; also recorded: least active	dose-dependent AII antagonistic effect	–
